Test results taken from US20070010543A1, “Compositions and methods for treating gastrointestinal hypomotility and associated disorders” (Dynogen Pharmaceuticals, Inc., priority 2005, published 2007).
Where “and” joins values, the source holds several entries; their conditions need not be identical. Equal entries are not always repeated.

System: guinea-pig distal colon
Test: Fecal pellet propulsion velocity assay, guinea pig ex vivo colon preparation
Excerpt: Hartley guinea pigs of either sex (Charles River Laboratories, Wilmington, Mass.) weighing approximately 300 grams were used in all experiments described herein. Segments of distal colon were taken from guinea pigs following euthanasia by isoflurane anesthesia and exsanguination. Colon segments were immediately placed on ice-cold physiological saline solution (PSS, see below for composition).
PSS was made daily and consisted of (in mM) 119 NaCl, 4.7 KCl, 24 NaHCO3, 1.2 KH2PO4, 2.5 CaCl2, 1.2 MgSO4, 11 glucose, and aerated with 95% O2-5% CO2 to obtain pH 7.4. Morphine (Sigma Chemical Company, St. Louis, Mo.), Naltrexone (Sigma Chemical Company, St. Louis, Mo.) or DDP733 (Dynogen Pharmaceuticals, Inc., Waltham, Mass.) were dissolved as stock solutions in distilled water.
Data are reported as means±SEM. Data were analyzed by t-test.
Segments of guinea-pig distal colon (5-8 cms long) were pinned out in an organ bath with pins attached to small pieces of mesentery adhering to the wall of the gut at intervals of approximately 1.5-2 cms. Colonic segments were superfused with oxygenated PSS warmed to about 37° C. An equilibration period was allowed, during which time the gut developed spontaneous tone and emptied its luminal contents. Following the equilibration period, a PE-50 catheter was inserted approximately 1 to 2 cms into the lumen via the anal end of the colon. Oxygenated PSS was perfused intraluminally at a rate of about 0.15 ml/min for a period of 30 minutes. At this point, a dried fecal pellet that had been coated with a synthetic polymer to maintain its structural integrity, was placed into the oral end of the colon, and the intraluminal catheter was advanced to the distal edge of the fecal pellet. The amount of time for the fecal pellet to move about 2 to 3 cms in the aboral direction was measured within the center of the colon segment using a custom computer program and digital video camera. A total of three motility trials were conducted in each experiment under baseline conditions, with a five-minute recovery period between each trial. Motility rates from these first three trials were averaged together to give a measure of baseline motility. After the third baseline trial, a 30-minute inter-trial equilibration period was allowed
At the end of the equilibration period, a fecal pellet was inserted into the oral end of the colon, and motility rate was assessed as before. A total of three motility trials were performed, with a 5-minute recovery period between each trial. Intraluminal infusion of naltrexone or DDP733 was resumed after each trial. Each colon was exposed to only a single concentration of naltrexone or DDP733.
Morphine (0.01 to 10 μM) was added to the superfusate (bath solution) during the inter-trial equilibration period, e.g., 15 minutes prior to the start of motility trials. Morphine remained in the bath solution for the remainder of the experiment. At the end of the equilibration period, a fecal pellet was inserted into the oral end of the colon, and motility rate was assessed as before. A total of three motility trials were performed, with a 5-minute recovery period between each trial. Each colon was exposed to only a single concentration of morphine.
Naltrexone was also infused intraluminally at this point. […] At the end of the equilibration period, a fecal pellet was inserted into the oral end of the colon, and motility rate was assessed as before.

SMILES: O=C(N[C@H]1CN2CCC1CC2)c1c[nH]c2ccsc2c1=O [DDP733, (R)-N-1-azabicyclo[2.2.2]oct-3-yl-4,7-dihydro-7-oxothieno[3,2-b]pyridine-6-carboxamide]
- effect on morphine-induced decrease in motility (in words, summary of Table II): diminished

SMILES: CN1CC[C@]23c4c5ccc(O)c4O[C@H]2[C@@H](O)C=C[C@H]3[C@H]1C5 [Morphine]
- Motility % control (Morphine 0.10 μM in bath, single preparations): 72 % control and 57 % control and 73 % control and 78 % control
- effect on motility (in words, summary of Table II): decrease in motility
